The target in this experiment is human activated kallikrein enzyme (Homo sapiens (Human), UniProt P03952). In words: Plasma kallikrein inhibition assay with fluorogenic peptide substrate, 500 pM activated kallikrein format. The format is biochemical. Conditions: read-out: Primary Dose Response Assay: Average EC50. The protocol:
Example compounds were evaluated for inhibition of the human activated kallikrein enzyme in two formats of an assay employing a fluorogenic peptide substrate. In one assay format, the concentrations of reagents were as follows: 20 mM Tris pH 7.5, 1 mM EDTA, 150 mM sodium chloride, 0.1% PEG-400, 0.1% Triton X-100, […], 300 uM Pro-Phe-Arg-7-amido-4-methylcoumarin substrate. Prior to reaction initiation with substrate, enzyme and inhibitors were preincubated for 30 min at RT. After initiation with substrate, reactions were incubated for 10 min at RT and fluorescence emission at 460 nm from 380 nm excitation measured with a microplate reader. In another assay format, the concentrations of reagents were as follows: 20 mM Tris pH 7.5, 1 mM EDTA, 150 mM sodium chloride, 0.1% PEG-400, 0.1% Triton X-100, 5 pM activated kallikrein enzyme, 300 uM Pro-Phe-Arg-7-amido-4-methylcoumarin substrate. Prior to reaction initiation with substrate, enzyme and inhibitors were preincubated for 30 min at RT. After initiation with substrate, reactions were incubated for 18 h at RT and fluorescence emission at 460 nm from 380 nm excitation measured with a microplate reader.
Table II provides the results of the assay in the format with 500 pM activated kallikrein assay.
Table III provides comparative plasma kallikrein inhibition potency in the assay format with 500 pM activated kallikrein assay (described in detail in the preceding example).

Setting [1] is: 500 pM activated kallikrein, 300 uM Pro-Phe-Arg-7-amido-4-methylcoumarin substrate, 30 min preincubation, 10 min reaction at RT.

Like-named read-outs stand apart in the source and are kept apart here. Bounds are passed on as bounds.

Chain of human activated kallikrein enzyme (P03952 391-638): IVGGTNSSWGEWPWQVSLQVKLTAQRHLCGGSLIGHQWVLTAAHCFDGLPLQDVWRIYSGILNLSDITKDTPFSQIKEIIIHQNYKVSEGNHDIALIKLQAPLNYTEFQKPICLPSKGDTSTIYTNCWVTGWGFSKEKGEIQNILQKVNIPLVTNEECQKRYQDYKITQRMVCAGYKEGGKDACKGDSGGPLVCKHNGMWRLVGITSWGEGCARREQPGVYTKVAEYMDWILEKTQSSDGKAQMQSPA
Chain of human activated kallikrein enzyme (P03952 20-390 partner): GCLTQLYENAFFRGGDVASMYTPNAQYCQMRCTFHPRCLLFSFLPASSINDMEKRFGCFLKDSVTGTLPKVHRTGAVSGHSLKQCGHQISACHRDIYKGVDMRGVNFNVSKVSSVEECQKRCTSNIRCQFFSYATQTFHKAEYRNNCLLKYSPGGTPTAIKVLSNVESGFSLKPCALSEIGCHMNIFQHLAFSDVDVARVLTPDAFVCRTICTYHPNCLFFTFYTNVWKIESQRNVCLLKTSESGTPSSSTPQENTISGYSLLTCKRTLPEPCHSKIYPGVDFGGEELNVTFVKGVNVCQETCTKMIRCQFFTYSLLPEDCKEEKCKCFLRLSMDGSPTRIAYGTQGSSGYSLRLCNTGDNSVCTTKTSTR

For the molecule `CS(=O)(=O)c1ccccc1CNC(=O)c1cn(Cc2cn3cc(C4CC4)ccc3n2)nn1` [Example I-51, 1-((6-cyclopropylimidazo[1,2-a]pyridin-2-yl)methyl)-N-(2-(methylsulfonyl)benzyl)-1H-1,2,3-triazole-4-carboxamide], the EC50 under setting [1] lay within 100 to 2000 nM.

With `CCOC(=O)C(C)(C)Cc1cc(C2CC2)cn2cc(Cn3cc(C(=O)NCc4c(-n5cnnn5)ccc(OC)c4F)nn3)nc12` [Example I-85, ethyl 3-(6-cyclopropyl-2-((4-((2-fluoro-3-methoxy-6-(1H-tetrazol-1-yl)benzyl)carbamoyl)-1H-1,2,3-triazol-1-yl)methyl)imidazo[1,2-a]pyridin-8-yl)-2,2-dimethylpropanoate], the EC50 under setting [1] is not above 1 nM.

On to `COc1ccc(-n2cnnn2)c(CNS(=O)(=O)c2cn(Cc3cn4cc(C5CC5)ccc4n3)nn2)c1F` [Example I-40, 1-((6-cyclopropylimidazo[1,2-a]pyridin-2-yl)methyl)-N-(2-fluoro-3-methoxy-6-(1H-tetrazol-1-yl)benzyl)-1H-1,2,3-triazole-4-sulfonamide], for which the EC50 under setting [1] lay in the range of 10 to 100 nM.

Consider `Nc1nnc(CNC(=O)c2cn(Cc3cn4cc(C5CC5)ccc4n3)nn2)[nH]1` [Example I-21, N-((5-amino-4H-1,2,4-triazol-3-yl)methyl)-1-((6-cyclopropylimidazo[1,2-a]pyridin-2-yl)methyl)-1H-1,2,3-triazole-4-carboxamide], for which the EC50 under setting [1] fell in the range of 2000 to 7100 nM.

In the case of `CC(NS(=O)(=O)c1cnn(Cc2cn3cc(C4CC4)ccc3n2)c1)c1cccc(Cl)c1` (stereo not drawn) [Example I-38, N-(1-(3-chlorophenyl)ethyl)-1-((6-cyclopropylimidazo[1,2-a]pyridin-2-yl)methyl)-1H-pyrazole-4-sulfonamide], the concentration for a half-maximal effect (EC50) under setting [1] is more than 7100 nM.

`COc1ccc(-n2ccnn2)c(CNC(=O)c2cn(Cc3cn4cc(C5CC5)ccc4n3)nn2)c1F` [Example I-76, 1-((6-cyclopropylimidazo[1,2-a]pyridin-2-yl)methyl)-N-(2-fluoro-3-methoxy-6-(1H-1,2,3-triazol-1-yl)benzyl)-1H-1,2,3-triazole-4-carboxamide]: the concentration giving a half-maximal response (EC50) under setting [1] was not above 1 nM.

With `O=C(NCc1cc(Cl)ccc1-c1nn[nH]n1)c1cnn(Cc2cn3cc(C4CC4)ccc3n2)c1` [Example I-117, N-(5-chloro-2-(2H-tetrazol-5-yl)benzyl)-1-((6-cyclopropylimidazo[1,2-a]pyridin-2-yl)methyl)-1H-pyrazole-4-carboxamide], the EC50 under setting [1] was more than 7100 nM.

Take `COc1ccc(-n2cnnn2)c(CN(C)C(=O)c2cn(Cc3cn4cc(C5CC5)ccc4n3)nn2)c1F` [Example I-66, 1-((6-cyclopropylimidazo[1,2-a]pyridin-2-yl)methyl)-N-(2-fluoro-3-methoxy-6-(1H-tetrazol-1-yl)benzyl)-N-methyl-1H-1,2,3-triazole-4-carboxamide]: the EC50 under setting [1] was 100 to 2000 nM.

With `O=C(NCc1cccc2ccc(Cl)cc12)c1cnn(Cc2cn3cc(C4CC4)ccc3n2)c1` [Example I-130, N-((7-chloronaphthalen-1-yl)methyl)-1-((6-cyclopropylimidazo[1,2-a]pyridin-2-yl)methyl)-1H-pyrazole-4-carboxamide], under setting [1], the EC50 lay in the range of 2000 to 7100 nM.

Take `COc1ccc(-c2c[nH]nn2)c(CNC(=O)c2cn(Cc3cn4cc(C5CC5)ccc4n3)nn2)c1F` [Example I-49, 1-((6-cyclopropylimidazo[1,2-a]pyridin-2-yl)methyl)-N-(2-fluor-3-methoxy-6-(1H-1,2,3-triazol-4-yl)benzyl)-1H-1,2,3-triazole-4-carboxamide]: the EC50 under setting [1] is 10 to 100 nM.

Regarding `COc1ccc(-n2cnnn2)c(CNC(=O)c2c(C)nn(Cc3cn4cc(C5CC5)ccc4n3)c2C)c1F` [Example I-15, 1-((6-cyclopropylimidazo[1,2-a]pyridin-2-yl)methyl)-N-(2-fluoro-3-methoxy-6-(1H-tetrazol-1-yl)benzyl)-3,5-dimethyl-1H-pyrazole-4-carboxamide], the EC50 under setting [1] was in the range of 100 to 2000 nM.

Take `O=C(NCc1nccc(Cl)n1)c1cn(Cc2cn3cc(C4CC4)ccc3n2)nn1` [Example I-145, N-((4-chloropyrimidin-2-yl)methyl)-1-((6-cyclopropylimidazo[1,2-a]pyridin-2-yl)methyl)-1H-1,2,3-triazole-4-carboxamide]: the EC50 under setting [1] is 100 to 2000 nM.

As for `O=C(NCCOc1cccc(Cl)c1)c1cnn(Cc2cn3cc(C4CC4)ccc3n2)c1` [Example I-129, N-(2-(3-chlorophenoxy)ethyl)-1-((6-cyclopropylimidazo[1,2-a]pyridin-2-yl)methyl)-1H-pyrazole-4-carboxamide], under setting [1], the EC50 lay within 100 to 2000 nM.

Take `COc1ccc(-n2cnc(C(F)(F)F)n2)c(CNC(=O)c2cn(Cc3cn4cc(C5CC5)ccc4n3)nn2)c1F` [Example I-52, 1-((6-cyclopropylimidazo[1,2-a]pyridin-2-yl)methyl)-N-(2-fluoro-3-methoxy-6-(3-(trifluoromethyl)-1H-1,2,4-triazol-1-yl)benzyl)-1H-1,2,3-triazole-4-carboxamide]: under setting [1], the half-maximal effective concentration (EC50) is not above 1 nM.

`O=C(NCc1cc2c(Cl)nccc2s1)c1cn(Cc2cn3cc(C4CC4)ccc3n2)nn1` [Example I-11, N-((4-chlorothieno[3,2-c]pyridin-2-yl)methyl)-1-((6-cyclopropylimidazo[1,2-a]pyridin-2-yl)methyl)-1H-1,2,3-triazole-4-carboxamide]: the EC50 under setting [1] was more than 7100 nM.

As to `COc1ccc(-n2cnnn2)c(C(C)NC(=O)c2cn(Cc3cn4cc(C5CC5)ccc4n3)nn2)c1F` (stereo not drawn) [Example I-31, 1-((6-cyclopropylimidazo[1,2-a]pyridin-2-yl)methyl)-N-(1-(2-fluoro-3-methoxy-6-(1H-tetrazol-1-yl)phenyl)ethyl)-1H-1,2,3-triazole-4-carboxamide], the EC50 under setting [1] is 1 to 10 nM.

As for `O=C(NCc1cccc(Cl)c1)c1cnn(Cc2cn3cc(C4CC4)ccc3n2)c1` [Example I-121, N-(3-chlorobenzyl)-1-((6-cyclopropylimidazo[1,2-a]pyridin-2-yl)methyl)-1H-pyrazole-4-carboxamide], the half-maximal effective concentration (EC50) under setting [1] was in the range of 100 to 2000 nM.

As to `Cc1cc2c(c(N)n1)CCC2NC(=O)c1cn(Cc2cn3cc(C4CC4)ccc3n2)nn1` (stereo not drawn) [Example I-16, N-(1-amino-3-methyl-6,7-dihydro-5H-cyclopenta[c]pyridin-5-yl)-1-((6-cyclopropylimidazo[1,2-a]pyridin-2-yl)methyl)-1H-1,2,3-triazole-4-carboxamide], the concentration for a half-maximal effect (EC50) under setting [1] is not above 1 nM.

In the case of `COc1ccc(F)c(CNC(=O)c2cn(Cc3cn4cc(C5CC5)cc(CC(C)(C)C#N)c4n3)nn2)c1F` [Example I-12, 1-((8-(2-cyano-2-methylpropyl)-6-cyclopropylimidazo[1,2-a]pyridin-2-yl)methyl)-N-(2,6-difluoro-3-methoxybenzyl)-1H-1,2,3-triazole-4-carboxamide], the concentration giving a half-maximal response (EC50) under setting [1] lay within 1 to 10 nM.

Consider `COc1ccc(C#N)c(CNC(=O)c2cnn(Cc3cn4cc(C5CC5)cc(C#N)c4n3)c2)c1F` [Example I-118, N-(6-cyano-2-fluoro-3-methoxybenzyl)-1-((8-cyano-6-cyclopropylimidazo[1,2-a]pyridin-2-yl)methyl)-1H-pyrazole-4-carboxamide], for which the concentration giving a half-maximal response (EC50) under setting [1] was not above 1 nM.

`COc1ccc(-n2cnnn2)c(CNC(=O)c2cn(Cc3cn4cc(C5CC5)cc(COCCN)c4n3)nn2)c1F` [Example I-17, 1-((8-((2-aminoethoxy)methyl)-6-cyclopropylimidazo[1,2-a]pyridin-2-yl)methyl)-N-(2-fluoro-3-methoxy-6-(1H-tetrazol-1-yl)benzyl)-1H-1,2,3-triazole-4-carboxamide]: under setting [1], the EC50 was not above 1 nM.

Consider `O=C(NCc1c(C(F)F)ccc(Cl)c1F)c1cn(Cc2cn3cc(C4CC4)ccc3n2)nn1` [Example I-79, N-(3-chloro-6-(difluoromethyl)-2-fluorobenzyl)-1-((6-cyclopropylimidazo[1,2-a]pyridin-2-yl)methyl)-1H-1,2,3-triazole-4-carboxamide], for which the concentration giving a half-maximal response (EC50) under setting [1] fell in the range of 10 to 100 nM.

With `O=C(O)CCc1cc(C2CC2)cn2cc(Cn3cc(C(=O)NCc4c(-n5cnnn5)ccc(Cl)c4F)nn3)nc12` [Example I-109, 3-(2-((4-((3-choro-2-fluoro-6-(1H-tetrazol-1-yl)benzyl)carbamoyl)-1H-1,2,3-triazol-1-yl)methyl)-6-cyclopropylimidazo[1,2-a]pyridin-8-yl)propanoic Acid], the EC50 under setting [1] was not above 1 nM.

`O=S(=O)(NCCc1ccc(Cl)cc1)c1cnn(Cc2cn3cc(C4CC4)ccc3n2)c1` [Example I-35, N-(4-chlorophenethyl)-1-((6-cyclopropylimidazo[1,2-a]pyridin-2-yl)methyl)-1H-pyrazole-4-sulfonamide]: under setting [1], the EC50 is more than 7100 nM.

For the molecule `O=C(NCc1ncn2ccc(Cl)c(F)c12)c1cn(Cc2cn3ccccc3n2)nn1`, where the note is “comparative compounds (Table III), 500 pM activated kallikrein format”, the EC50 was in the range of 10 to 100 nM.

For the molecule `NCc1ccc(CNS(=O)(=O)c2cnn(Cc3cn4cc(C5CC5)ccc4n3)c2)cc1` [Example I-33, N-(4-(aminomethyl)benzyl)-1-((6-cyclopropylimidazo[1,2-a]pyridin-2-yl)methyl)-1H-pyrazole-4-sulfonamide], under setting [1], the EC50 is 2000 to 7100 nM.

With `Cc1[nH]nc2c1CC[C@H]2NC(=O)c1cnn(Cc2cn3cc(C4CC4)ccc3n2)c1` [Example I-155], the EC50 under setting [1] was 1 to 10 nM.

The term EC50 denotes the concentration at which the effect is half-maximal.

Source of the values: US11787796B2, “Plasma Kallikrein inhibitors and uses thereof” (Takeda Pharmaceutical Company Limited, priority 2019, dated 2023).
